{"source": "paper PMC5967881", "about": "(Journal of medicinal chemistry, 2017)", "key": {"[1]": {"target": "wild-type AM2 channel (AM2-WT) (Influenza A virus, UniProt P0DOF5)", "sequence (P0DOF5 whole entry)": "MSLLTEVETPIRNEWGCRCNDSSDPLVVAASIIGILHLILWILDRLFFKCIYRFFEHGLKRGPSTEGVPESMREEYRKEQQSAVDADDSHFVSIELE", "experiment": "biochemical", "conditions": "pH 5.5, read-out: Electrophysiological TEVC assay (% WT channel inhibition), 100 μM, two-minute time point, pH 5.5, Xenopus laevis oocytes"}, "[2]": {"test_system": "A/California/07/2009 (H1N1) virus", "experiment": "microbe, parasite or virus in culture", "format": "cell-based, influenza A virus", "conditions": "for activity at 10 µM: read-out: % plaque formation at 10 μM drug concentration against A/California/07/2009 (H1N1); for EC50: read-out: EC50 against A/California/07/2009 (H1N1)"}}, "note": "Where two headings read alike, the source gives them in different places."}
{"compound": "c1ccc(-c2cc(CNC34CC5CC(CC(C5)C3)C4)no2)cc1", "note": "[9a, N-[(5-phenyl-1,2-oxazol-3-yl)methyl]adamantan-1-amine]", "values": [{"measurement": "inhibition at 100 µM", "setting": "[1]", "result": "≤ 30", "unit": "%"}, {"measurement": "activity at 10 µM", "setting": "[2]; Influenza A virus, H1N1, MDCK", "result": "< 20", "unit": "%"}, {"measurement": "EC50", "setting": "[2]; Influenza A virus, H1N1, MDCK", "result": "100 to 1200", "unit": "nM"}]}
{"compound": "OC12CC3CC(C1)CC(NCc1cc(-c4ccccc4Cl)on1)(C3)C2", "note": "[9d, 3-({[5-(2-chlorophenyl)-1,2-oxazol-3-yl]methyl}amino)adamantan-1-ol]", "values": [{"measurement": "inhibition at 100 µM", "setting": "[1]", "result": "≤ 30", "unit": "%"}, {"measurement": "activity at 10 µM", "setting": "[2]; Influenza A virus, H1N1, MDCK", "result": "< 20", "unit": "%"}, {"measurement": "EC50", "setting": "[2]; Influenza A virus, H1N1, MDCK", "result": "100 to 1200", "unit": "nM"}]}
{"compound": "CSc1ccccc1-c1cc(CNC23CC4CC(CC(O)(C4)C2)C3)no1", "note": "[9f, 3-[({5-[2-(methylsulfanyl)phenyl]-1,2-oxazol-3-yl}methyl)amino]adamantan-1-ol]", "values": [{"measurement": "inhibition at 100 µM", "setting": "[1]", "result": "≤ 30", "unit": "%"}, {"measurement": "activity at 10 µM", "setting": "[2]; Influenza A virus, H1N1, MDCK", "result": "< 20", "unit": "%"}, {"measurement": "EC50", "setting": "[2]; Influenza A virus, H1N1, MDCK", "result": "100 to 1200", "unit": "nM"}]}
{"compound": "Oc1ccccc1-c1cc(CNC23CC4CC(CC(C4)C2)C3)no1", "note": "[9h, 2-(3-(((adamantan-1-yl)amino)methyl)isoxazol-5-yl)phenol]", "values": [{"measurement": "inhibition at 100 µM", "setting": "[1]", "result": "≤ 30", "unit": "%"}, {"measurement": "activity at 10 µM", "setting": "[2]; Influenza A virus, H1N1, MDCK", "result": "< 20", "unit": "%"}, {"measurement": "EC50", "setting": "[2]; Influenza A virus, H1N1, MDCK", "result": "100 to 1200", "unit": "nM"}]}
{"compound": "Clc1ccc(-c2cc(CNC34CC5CC(CC(C5)C3)C4)no2)s1", "note": "[9q, N-((5-(5-chlorothiophen-2-yl)isoxazol-3-yl)methyl)adamantan-1-amine]", "values": [{"measurement": "% plaque formation at 10 μM drug concentration against A/California/07/2009 (H1N1)", "setting": "[2]", "result": 0, "unit": "%"}, {"measurement": "activity at 10 µM", "setting": "[2]; Influenza A virus, H1N1, MDCK", "result": "< 20", "unit": "%"}, {"measurement": "EC50", "setting": "[2]", "result": "100 ± 30", "unit": "nM"}]}
{"compound": "Clc1cc(-c2cc(CNC34CC5CC(CC(C5)C3)C4)no2)cs1", "note": "[9r, N-((5-(5-chlorothiophen-3-yl)isoxazol-3-yl)methyl)adamantan-1-amine]", "values": [{"measurement": "activity at 10 µM", "setting": "[2]; Influenza A virus, H1N1, MDCK", "result": "< 20", "unit": "%"}]}
{"compound": "COc1sccc1-c1cc(CNC23CC4CC(CC(C4)C2)C3)no1", "note": "[9t, N-((5-(2-methoxythiophen-3-yl)isoxazol-3-yl)methyl)adamantan-1-amine]", "values": [{"measurement": "inhibition at 100 µM", "setting": "[1]", "result": "≤ 30", "unit": "%"}, {"measurement": "activity at 10 µM", "setting": "[2]; Influenza A virus, H1N1, MDCK", "result": "< 20", "unit": "%"}]}
{"compound": "Clc1cc(-c2cc(CNC34CC5CC(CC(C5)C3)C4)no2)c(Cl)s1", "note": "[9u, N-((5-(2,5-dichlorothiophen-3-yl)isoxazol-3-yl)methyl)adamantan-1-amine]", "values": [{"measurement": "activity at 10 µM", "setting": "[2]; Influenza A virus, H1N1, MDCK", "result": "< 20", "unit": "%"}]}
{"compound": "OC12CC3CC(C1)CC(NCc1cc(-c4cc(Cl)sc4Cl)on1)(C3)C2", "note": "[9v, 3-({[5-(2,5-dichlorothiophen-3-yl)-1,2-oxazol-3-yl]methyl}amino)adamantan-1-ol]", "values": [{"measurement": "activity at 10 µM", "setting": "[2]; Influenza A virus, H1N1, MDCK", "result": "< 20", "unit": "%"}]}
{"compound": "N-((5-(2-(methylsulfonyl)phenyl)isoxazol-3-yl)methyl)adamantan-1-amine [9m]", "values": [{"measurement": "% plaque formation at 10 μM drug concentration against A/California/07/2009 (H1N1)", "setting": "[2]", "result": "57.1 ± 2.4", "unit": "%"}]}
